Key:
[1] = tested on: Magnaporthe grisea (Pyricularia oryzae); assay: whole plant or invertebrate; format: in vivo; settings: foliar, read-out: disease control
[2] = tested on: Phaeosphaeria nodorum (Setoria nodorum); assay: Phaeosphaeria nodorum (Septoria nodorum) / wheat / leaf disc preventative (glume blotch); format: in vivo; settings: Parastagonospora nodorum, foliar, 200 ppm in the formulation, wheat leaf segments cv. Kanzler, 5-7 days after application, vs untreated control, read-out: disease control
Experimental: Phaeosphaeria nodorum (Setoria nodorum)/Wheat/Leaf Disc Preventative (Glume Blotch) Wheat leaf segments cv. Kanzler are placed on agar in a multiwell plate (24-well format) and sprayed with the formulated test compound diluted in water. The leaf disks are inoculated with a spore suspension of the fungus 2 days after application. The inoculated test leaf disks are incubated at 20° C. and 75% rh under a light regime of 12 h light/12 h darkness in a climate cabinet and the activity of a compound is assessed as percent disease control compared to untreated when an appropriate level of disease damage appears in untreated check leaf disks (5-7 days after application).

[3] = tested on: Mycosphaerella arachidis (Cercospora arachidicola); assay: Mycosphaerella arachidis (Cercospora arachidicola) / liquid culture (early leaf spot); format: cell-based; settings: 200 ppm in the formulation, PDB broth, 24° C., photometric, 4-5 days after application, vs untreated control, read-out: disease control (inhibition of growth)
Experimental: Mycosphaerella arachidis (Cercospora arachidicola)/Liquid Culture (Early Leaf Soot) Conidia of the fungus from cryogenic storage are directly mixed into nutrient broth (PDB potato dextrose broth). After placing a (DMSO) solution of test compound into a microtiter plate (96-well format), the nutrient broth containing the fungal spores is added. The test plates are incubated at 24° C. and the inhibition of growth is determined photometrically 4-5 days after application.

[4] = tested on: Glomerella lagenarium (Colletotrichum lagenarium); assay: Glomerella lagenarium (Colletotrichum lagenarium) / liquid culture (anthracnose); format: cell-based; settings: Colletotrichum orbiculare; 200 ppm in the formulation; PDB broth, 24° C., photometric, 3 to 4 days after application; vs untreated control; read-out: disease control (inhibition of growth)
Experimental: Glomerella lagenarium (Colletotrichum lagenarium)/Liquid Culture (Anthracnose) Conidia of the fungus from cryogenic storage are directly mixed into nutrient broth (PDB potato dextrose broth). After placing a (DMSO) solution of test compound into a microtiter plate (96-well format), the nutrient broth containing the fungal spores is added. The test plates are incubated at 24° C. and the inhibition of growth is measured photometrically 3 to 4 days after application.

[5] = tested on: Monographella nivalis (Microdochium nivale); assay: Monographella nivalis (Microdochium nivale) / liquid culture (foot rot cereals); format: cell-based; settings: 200 ppm in the formulation, PDB broth, 24° C., photometric, 4-5 days after application, vs untreated control, read-out: disease control (inhibition of growth)
Experimental: Monographella nivalis (Microdochium nivale)/Liquid Culture (Foot Rot Cereals) Conidia of the fungus from cryogenic storage are directly mixed into nutrient broth (PDB potato dextrose broth). After placing a (DMSO) solution of test compound into a microtiter plate (96-well format), the nutrient broth containing the fungal spores is added. The test plates are incubated at 24° C. and the inhibition of growth is determined photometrically 4-5 days after application.

[6] = tested on: Puccinia recondita f. so. tritici; assay: Puccinia recondita f. sp. tritici / wheat / leaf disc preventative (brown rust); format: in vivo; settings: foliar, 200 ppm in the formulation, wheat leaf segments cv. Kanzler, 7-9 days after application, vs untreated control, read-out: disease control
Experimental: Puccinia recondita f. so. tritici/Wheat/Leaf Disc Preventative (Brown Rust)
Wheat leaf segments cv. Kanzler are placed on agar in multiwell plates (24-well format) and sprayed with the formulated test compound diluted in water. The leaf disks are inoculated with a spore suspension of the fungus 1 day after application. The inoculated leaf segments are incubated at 19° C. and 75% rh under a light regime of 12 h light/12 h darkness in a climate cabinet and the activity of a compound is assessed as percent disease control compared to untreated when an appropriate level of disease damage appears in untreated check leaf segments (7-9 days after application).

[7] = tested on: Botryotinia fuckeliana (Botrytis cinerea); assay: Botryotinia fuckeliana (Botrytis cinerea) liquid culture (gray mould); format: cell-based; settings: 200 ppm in the formulation, Vogels broth, 24° C., photometric, 3-4 days after application, vs untreated control, read-out: disease control (inhibition of growth)
Experimental: Botryotinia fuckeliana (Botrytis cinerea) Liquid Culture (Gray Mould) Conidia of the fungus from cryogenic storage are directly mixed into nutrient broth (Vogels broth). After placing a (DMSO) solution of test compound into a microtiter plate (96-well format), the nutrient broth containing the fungal spores is added. The test plates are incubated at 24° C. and the inhibition of growth is determined photometrically 3-4 days after application.

[8] = tested on: Mycosphaerella graminicola (Septoria tritici); assay: Mycosphaerella graminicola (Septoria tritici) / liquid culture (Septoria blotch); format: cell-based; settings: Zymoseptoria tritici; 200 ppm in the formulation; PDB broth, 24° C., photometric, 4 to 5 days after application; vs untreated control; read-out: disease control (inhibition of growth)
Experimental: Mycosphaerella graminicola (Septoria tritici)/Liquid Culture (Septoria Blotch) Conidia of the fungus from cryogenic storage are directly mixed into nutrient broth (PDB potato dextrose broth). After placing a (DMSO) solution of test compound into a microtiter plate (96-well format), the nutrient broth containing the fungal spores is added. The test plates are incubated at 24° C. and the inhibition of growth is determined photometrically 4 to 5 days after application.

Pythium ultimum = Pythium ultimum / liquid culture (seedling damping off); format: cell-based; settings: Globisporangium ultimum; 200 ppm in the formulation; PDB broth, 24° C., photometric, 2-3 days after application; vs untreated control; read-out: disease control (inhibition of growth)
Experimental: Pythium ultimum/Liquid Culture (Seedling Damping Off) Mycelia fragments and oospores of a newly grown liquid culture of the fungus are directly mixed into nutrient broth (PDB potato dextrose broth). After placing a (DMSO) solution of test compound into a microtiter plate (96-well format), the nutrient broth containing the fungal mycelia/spore mixture is added. The test plates are incubated at 24° C. and the inhibition of growth is determined photometrically 2-3 days after application.

COc1ccnc(C(=O)N[C@@H](C)C(=O)OC(C)C(C)c2sc3ccccc3c2C)c1O (stereo partly drawn) [I.as.001, [1-methyl-2-(3-methylbenzothiophen-2-yl)propyl] (2S)-2-[(3-hydroxy-4-methoxy-pyridine-2-carbonyl)amino]propanoate]
≥ 80%: pest or weed control at 200 ppm [1] | pest or weed control at 200 ppm [2] | inhibition at 200 ppm [3] | inhibition at 200 ppm [4] | inhibition at 200 ppm [5] | pest or weed control at 200 ppm [6] | inhibition at 200 ppm [7] | inhibition at 200 ppm [8]

COc1ccnc(C(=O)N[C@@H](C)C(=O)OC(C)C(C)n2ccc3cc(Cl)ccc32)c1O (stereo partly drawn) [I.y.001, [2-(5-chloroindol-1-yl)-1-methyl-propyl] (2S)-2-[(3-hydroxy-4-methoxy-pyridine-2-carbonyl)amino]propanoate]
≥ 80%: inhibition at 200 ppm [3] | inhibition at 200 ppm [4] | inhibition at 200 ppm [5] | pest or weed control at 200 ppm [6] | inhibition at 200 ppm (Pythium ultimum) | inhibition at 200 ppm [7] | inhibition at 200 ppm [8]

Source: patent US11629138B2, “Microbiocidal picolinamide derivatives” (Syngenta Participations AG, priority 2017, dated 2023)
